Test results as given in publication PMC3615554 (Journal of biomolecular screening, 2012).
Read-outs that look alike come from different tables or passages of the source.

What was measured:
[1] = system: EGFR activation (granule formation) in A549-EGFRB cells; experiment: EGFRB assay, granule count readout; type: cell-based; conditions: for IC50 / EC50: read-out: IC50 or EC50 (nM) Granule count; for inhibition at 10 µM: read-out: HTS % inhibition at 10 μM Granule count
A549-EGFRB cells = experiment: EGFRB assay, nuclei count readout; type: cell-based; conditions: for HTS % inhibition at 10 μM Nuclei count: pilot screen, 10 μM compound, average of duplicates; for inhibition at 10 µM: read-out: HTS % inhibition at 10 μM Nuclei count
[2] = system: A549 cells (wild type EGFR); experiment: Alamar Blue viability assay, A549; type: cell-based; conditions: for IC50: Homo sapiens, A549, 120 h, read-out: Alamar Blue viability assay IC50 A549; for Alamar Blue viability assay IC50 A549: 120 hours incubation, * = partial inhibition
EGFR kinase = EGFR kinase (Homo sapiens, UniProt P00533); experiment: Luminescence ADP production kinase assay, EGFR; type: biochemical; conditions: for Luminescence ADP kinase assay IC50 EGFR: 50 nM enzyme, 200 μM ATP, low limit 10 nM, * = partial inhibition
EGFR kinase, sequence (P00533 25-1210): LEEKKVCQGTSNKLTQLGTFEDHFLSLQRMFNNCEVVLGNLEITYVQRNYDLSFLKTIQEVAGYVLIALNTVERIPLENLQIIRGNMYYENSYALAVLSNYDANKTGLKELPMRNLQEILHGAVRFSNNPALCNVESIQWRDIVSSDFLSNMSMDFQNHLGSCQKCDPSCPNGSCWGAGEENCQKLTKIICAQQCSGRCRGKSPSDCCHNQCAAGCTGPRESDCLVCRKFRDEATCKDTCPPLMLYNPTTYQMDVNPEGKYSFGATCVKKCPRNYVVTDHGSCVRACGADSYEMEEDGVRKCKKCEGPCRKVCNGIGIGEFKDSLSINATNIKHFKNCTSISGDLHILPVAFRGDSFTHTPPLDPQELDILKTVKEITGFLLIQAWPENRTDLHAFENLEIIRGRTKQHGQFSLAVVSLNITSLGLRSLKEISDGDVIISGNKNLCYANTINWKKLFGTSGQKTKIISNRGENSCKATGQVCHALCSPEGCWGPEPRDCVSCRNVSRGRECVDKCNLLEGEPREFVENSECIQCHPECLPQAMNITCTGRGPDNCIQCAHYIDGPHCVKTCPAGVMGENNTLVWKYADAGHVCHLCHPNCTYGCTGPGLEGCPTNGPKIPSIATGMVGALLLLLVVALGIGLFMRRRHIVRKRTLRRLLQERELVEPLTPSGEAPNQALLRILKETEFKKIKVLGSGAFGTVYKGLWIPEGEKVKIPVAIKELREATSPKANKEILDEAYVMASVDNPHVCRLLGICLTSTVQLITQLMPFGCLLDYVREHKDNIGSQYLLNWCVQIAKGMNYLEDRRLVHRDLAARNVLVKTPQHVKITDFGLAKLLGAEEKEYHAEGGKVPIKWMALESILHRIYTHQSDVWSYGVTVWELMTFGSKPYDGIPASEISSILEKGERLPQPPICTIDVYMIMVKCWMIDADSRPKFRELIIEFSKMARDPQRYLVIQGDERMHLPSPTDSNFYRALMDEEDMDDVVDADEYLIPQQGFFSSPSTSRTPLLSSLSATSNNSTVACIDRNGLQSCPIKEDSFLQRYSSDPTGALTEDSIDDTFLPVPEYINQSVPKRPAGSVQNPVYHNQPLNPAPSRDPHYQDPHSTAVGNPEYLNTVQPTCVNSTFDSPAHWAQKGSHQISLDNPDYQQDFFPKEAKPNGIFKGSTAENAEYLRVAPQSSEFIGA

[3] = system: H2030 cells (wild type EGFR); experiment: Alamar Blue viability assay, H2030; type: cell-based; conditions: for IC50: Homo sapiens, NCI-H2030, 120 h, read-out: Alamar Blue viability assay IC50 H2030; for Alamar Blue viability assay IC50 H2030: 120 hours incubation, * = partial inhibition
ABL kinase = ABL kinase (Homo sapiens, UniProt P00519); experiment: Luminescence ADP production kinase assay, ABL; type: biochemical; conditions: for Luminescence ADP kinase assay IC50 ABL: 50 nM enzyme, 200 μM ATP, * = partial inhibition
ABL kinase, sequence (P00519 whole entry): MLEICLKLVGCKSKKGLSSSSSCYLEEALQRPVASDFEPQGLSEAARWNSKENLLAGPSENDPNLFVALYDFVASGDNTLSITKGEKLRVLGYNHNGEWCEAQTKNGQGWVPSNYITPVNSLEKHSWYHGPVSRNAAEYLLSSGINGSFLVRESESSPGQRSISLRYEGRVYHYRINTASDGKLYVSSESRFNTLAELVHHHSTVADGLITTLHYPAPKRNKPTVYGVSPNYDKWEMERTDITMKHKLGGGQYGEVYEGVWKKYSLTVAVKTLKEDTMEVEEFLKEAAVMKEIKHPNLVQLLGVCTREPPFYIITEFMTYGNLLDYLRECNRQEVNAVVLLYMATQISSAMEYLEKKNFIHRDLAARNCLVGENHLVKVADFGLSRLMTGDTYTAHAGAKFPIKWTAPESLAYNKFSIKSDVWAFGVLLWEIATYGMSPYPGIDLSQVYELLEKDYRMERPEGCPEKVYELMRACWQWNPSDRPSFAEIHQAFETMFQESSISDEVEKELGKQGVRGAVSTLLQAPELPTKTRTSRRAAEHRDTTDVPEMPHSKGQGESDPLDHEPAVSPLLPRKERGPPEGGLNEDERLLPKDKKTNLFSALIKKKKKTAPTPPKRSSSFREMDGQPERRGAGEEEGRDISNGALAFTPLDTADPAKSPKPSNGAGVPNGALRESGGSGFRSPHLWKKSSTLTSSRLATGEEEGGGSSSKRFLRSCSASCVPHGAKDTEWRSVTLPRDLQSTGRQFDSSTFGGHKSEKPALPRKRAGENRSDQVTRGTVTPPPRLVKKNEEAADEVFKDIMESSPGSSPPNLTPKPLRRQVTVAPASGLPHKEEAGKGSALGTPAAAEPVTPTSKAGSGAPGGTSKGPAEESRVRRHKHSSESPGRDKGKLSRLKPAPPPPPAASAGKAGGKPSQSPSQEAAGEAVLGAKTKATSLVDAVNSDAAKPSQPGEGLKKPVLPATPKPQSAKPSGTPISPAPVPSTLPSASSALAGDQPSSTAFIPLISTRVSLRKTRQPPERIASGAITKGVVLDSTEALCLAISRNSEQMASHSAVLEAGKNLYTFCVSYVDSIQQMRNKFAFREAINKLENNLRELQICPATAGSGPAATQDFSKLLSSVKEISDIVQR

SRC kinase = SRC kinase (Homo sapiens, UniProt P12931); experiment: Luminescence ADP production kinase assay, SRC; type: biochemical; conditions: for Luminescence ADP kinase assay IC50 SRC: 50 nM enzyme, 200 μM ATP, * = partial inhibition
SRC kinase, sequence (P12931 whole entry): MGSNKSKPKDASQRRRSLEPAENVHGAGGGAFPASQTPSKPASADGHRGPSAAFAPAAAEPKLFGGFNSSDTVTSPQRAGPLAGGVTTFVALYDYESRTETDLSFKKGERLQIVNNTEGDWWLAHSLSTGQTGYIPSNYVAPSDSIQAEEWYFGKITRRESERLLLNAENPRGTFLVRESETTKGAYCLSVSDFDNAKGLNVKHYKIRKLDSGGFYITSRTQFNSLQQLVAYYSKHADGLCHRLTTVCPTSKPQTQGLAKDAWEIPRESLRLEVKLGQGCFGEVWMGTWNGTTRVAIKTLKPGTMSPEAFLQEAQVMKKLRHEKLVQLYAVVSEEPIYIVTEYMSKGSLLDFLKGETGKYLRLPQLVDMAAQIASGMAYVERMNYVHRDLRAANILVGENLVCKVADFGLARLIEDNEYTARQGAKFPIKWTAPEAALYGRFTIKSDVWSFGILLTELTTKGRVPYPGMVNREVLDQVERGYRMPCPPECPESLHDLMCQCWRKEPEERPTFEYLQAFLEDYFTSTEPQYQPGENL

VEGFR1 kinase = VEGFR1 kinase (Homo sapiens, UniProt P17948); experiment: Luminescence ADP production kinase assay, VEGFR1; conditions: for Luminescence ADP kinase assay IC50 VEGFR1: 50 nM enzyme, 200 μM ATP, * = partial inhibition
VEGFR1 kinase, sequence (P17948 27-1338): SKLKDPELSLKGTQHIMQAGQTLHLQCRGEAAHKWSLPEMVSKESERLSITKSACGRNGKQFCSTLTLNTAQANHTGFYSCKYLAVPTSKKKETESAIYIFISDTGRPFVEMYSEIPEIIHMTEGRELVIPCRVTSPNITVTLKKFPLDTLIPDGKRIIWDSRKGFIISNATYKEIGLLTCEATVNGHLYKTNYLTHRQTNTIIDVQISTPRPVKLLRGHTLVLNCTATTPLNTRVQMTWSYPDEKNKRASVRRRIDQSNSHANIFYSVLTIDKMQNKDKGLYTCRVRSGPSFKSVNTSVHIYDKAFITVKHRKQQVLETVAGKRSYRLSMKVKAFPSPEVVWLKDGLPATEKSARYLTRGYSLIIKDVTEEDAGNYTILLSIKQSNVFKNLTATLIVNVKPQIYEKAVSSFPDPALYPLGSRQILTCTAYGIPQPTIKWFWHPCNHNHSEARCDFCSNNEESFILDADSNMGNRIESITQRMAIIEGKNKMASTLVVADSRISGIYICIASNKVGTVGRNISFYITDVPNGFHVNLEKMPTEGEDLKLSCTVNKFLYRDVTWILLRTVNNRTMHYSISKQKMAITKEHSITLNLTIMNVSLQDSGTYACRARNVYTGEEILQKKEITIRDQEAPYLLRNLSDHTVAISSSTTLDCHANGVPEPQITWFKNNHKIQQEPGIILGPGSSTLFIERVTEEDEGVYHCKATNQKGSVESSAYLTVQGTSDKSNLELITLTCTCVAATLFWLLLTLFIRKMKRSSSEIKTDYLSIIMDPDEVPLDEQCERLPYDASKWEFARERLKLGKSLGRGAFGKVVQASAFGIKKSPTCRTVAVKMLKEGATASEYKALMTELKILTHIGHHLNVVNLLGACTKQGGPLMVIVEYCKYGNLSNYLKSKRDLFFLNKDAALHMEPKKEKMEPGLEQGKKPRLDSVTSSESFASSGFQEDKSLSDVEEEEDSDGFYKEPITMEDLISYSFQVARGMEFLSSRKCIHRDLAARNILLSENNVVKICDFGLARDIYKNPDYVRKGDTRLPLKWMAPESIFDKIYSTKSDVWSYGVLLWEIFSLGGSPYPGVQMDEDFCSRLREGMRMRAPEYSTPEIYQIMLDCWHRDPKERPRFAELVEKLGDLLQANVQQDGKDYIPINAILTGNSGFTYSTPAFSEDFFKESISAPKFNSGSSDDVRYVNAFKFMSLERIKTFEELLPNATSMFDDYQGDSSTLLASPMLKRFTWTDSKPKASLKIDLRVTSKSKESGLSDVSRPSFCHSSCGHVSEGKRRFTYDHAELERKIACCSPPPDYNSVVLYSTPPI

[4] = system: HCC4011 cells (L858R EGFR mutation); experiment: Alamar Blue viability assay, HCC4011; type: cell-based, human; conditions: for IC50: Homo sapiens, HCC4011, 120 h, read-out: Alamar Blue viability assay IC50 HCC4011; for Alamar Blue viability assay IC50 HCC4011: 120 hours incubation, * = partial inhibition
[5] = system: H3255 cells (L858R EGFR mutation); experiment: Alamar Blue viability assay, H3255; type: cell-based, human; conditions: for IC50: Homo sapiens, NCI-H3255, 120 h, read-out: Alamar Blue viability assay IC50 H3255; for Alamar Blue viability assay IC50 H3255: 120 hours incubation, * = partial inhibition
recombinant EGFR kinase = conditions: read-out: Reported IC50 toward recombinant EGFR kinase; cited from earlier work
[6] = inhibitors, dose response up to 10 μM, ±standard deviation, N.E. = no effect
[7] = inhibitors, dose response up to 10 μM, N.E. = no effect, * = partial inhibition
[8] = activators, dose response up to 10 μM, N.E. = no effect

Compound	IC50 [1, 6] [nM]	IC50 or EC50 (nM) Nuclei count (A549-EGFRB cells; [7])	HTS % inhibition at 10 μM Nuclei count (A549-EGFRB cells) [%]	IC50 [1] [nM]	IC50 [2] [µM]	IC50 [3] [µM]	inhibition at 10 µM [1] [%]	IC50 (SRC kinase) [µM]	IC50 (VEGFR1 kinase) [µM]	IC50 [4] [µM]	IC50 [5] [µM]	inhibition at 10 µM (A549-EGFRB cells) [%]	further results
CC(C)[C@H](CO)Nc1nc(Nc2cc(N)cc(Cl)c2)c2ncn(C(C)C)c2n1 [Aminopurvalanol A, aminopurvalanol A]	910 ± 400	N.E.^*	40	–	–	–	–	–	–	–	–	–	–
CO[C@@H]1[C@H](N(C)C(=O)c2ccccc2)C[C@H]2O[C@]1(C)n1c3ccccc3c3c4c(c5c6ccccc6n2c5c31)C(=O)NC4 [PKC 412]	–	–	–	1300	–	–	–	–	–	–	–	–	–
CO[C@H]1/C=C\C=C(/C)C(=O)NC2=CC(=O)C(NCCN(C)C)=C(C[C@@H](C)C[C@H](OC)[C@H](O)[C@@H](C)/C=C(\C)[C@@H]1OC(N)=O)C2=O [17-DMAG, 17-dimethylaminoethylamino-17-demethoxy-geldanamycin]	29 ± 3	N.E.	33	–	–	–	–	–	–	–	–	–	–
CS(=O)(=O)CCNCc1nc(-c2ccc3ncnc(Nc4ccc(OCc5cccc(F)c5)c(Cl)c4)c3c2)cs1 [GW 583340]	–	N.E.	–	2000	> 10	> 10	94	> 10	> 10	2 ± 0.2	0.96 ± 0.06	26	IC50 (EGFR kinase): 1.3 ± 0.1 µM; IC50 (ABL kinase): > 10 µM
CN(C)c1cc2c(Nc3ccc4c(cnn4Cc4ccccc4)c3)ncnc2cn1 [GW 2974]	1300	N.E.	18	–	–	–	–	–	–	–	–	–	–
COC(=O)/C=C/c1cc(O)ccc1O [Erbstatin analog]	–	N.E.^*	2	–	–	–	–	–	–	–	–	–	Alamar Blue viability assay IC50 A549 [2]: only partial inhibition; Luminescence ADP kinase assay IC50 EGFR (EGFR kinase): inactive; Alamar Blue viability assay IC50 H2030 [3]: only partial inhibition; Luminescence ADP kinase assay IC50 ABL (ABL kinase): inactive; IC50 or EC50 (nM) Granule count [1, 6]: N.E.; Luminescence ADP kinase assay IC50 SRC (SRC kinase): inactive; Luminescence ADP kinase assay IC50 VEGFR1 (VEGFR1 kinase): inactive; Alamar Blue viability assay IC50 HCC4011 [4]: only partial inhibition; Alamar Blue viability assay IC50 H3255 [5]: only partial inhibition
CS(=O)(=O)CCNCc1ccc(-c2ccc3ncnc(Nc4ccc(OCc5cccc(F)c5)c(Cl)c4)c3c2)o1 [Lapatinib, lapatinib]	–	–	–	590 ± 30	> 10	> 10	91	–	–	1.5 ± 0.1	1.2 ± 0.1	0	IC50 or EC50 (nM) Nuclei count (A549-EGFRB cells): N.E.
C[C@H]1C[C@H]2[C@@H]3CCC4=CC(=O)C=C[C@]4(C)[C@@]3(Cl)[C@@H](O)C[C@]2(C)[C@@]1(O)C(=O)CO [Beclomethasone, beclomethasone]	–	–	16	–	–	–	–	–	–	–	–	–	Luminescence ADP kinase assay IC50 EGFR (EGFR kinase): no inhibitory effects; Luminescence ADP kinase assay IC50 ABL (ABL kinase): no inhibitory effects; EC50 ([1]; activators of granule formation, dose response up to 10 μM, ±standard deviation): 42 ± 7 nM; Luminescence ADP kinase assay IC50 SRC (SRC kinase): no inhibitory effects; Luminescence ADP kinase assay IC50 VEGFR1 (VEGFR1 kinase): no inhibitory effects; IC50 or EC50 (nM) Nuclei count (A549-EGFRB cells; [8]): N.E.
C#Cc1cccc(Nc2ncnc3cc(OCCOC)c(OCCOC)cc23)c1 [Erlotinib, erlotinib]	–	–	–	–	–	–	–	–	–	–	–	36	IC50 or EC50 (nM) Nuclei count (A549-EGFRB cells): N.E.
CC1(C)O[C@@H]2C[C@H]3[C@@H]4C[C@H](F)C5=CC(=O)CC[C@]5(C)[C@H]4[C@@H](O)C[C@]3(C)[C@]2(C(=O)CO)O1 [Flurandrenolide, flurandrenolide]	–	–	–	–	> 10	> 10	-165	> 10	> 10	> 10	> 10	7	Alamar Blue viability assay IC50 A549 [2]: inactive; IC50 (EGFR kinase): > 10 µM; Luminescence ADP kinase assay IC50 EGFR (EGFR kinase): no inhibitory effects; Alamar Blue viability assay IC50 H2030 [3]: inactive; EC50 [1]: 23 ± 20 nM; Luminescence ADP kinase assay IC50 SRC (SRC kinase): no inhibitory effects; Luminescence ADP kinase assay IC50 VEGFR1 (VEGFR1 kinase): no inhibitory effects; Alamar Blue viability assay IC50 HCC4011 [4]: inactive; Alamar Blue viability assay IC50 H3255 [5]: inactive; IC50 or EC50 (nM) Nuclei count (A549-EGFRB cells; [8]): N.E.
COc1cc2ncnc(Nc3ccc(Cl)cc3F)c2cc1OC [ZM-306416]	670 ± 200	N.E.	21	–	–	–	–	–	–	–	–	–	Alamar Blue viability assay IC50 A549 [2]: inactive; Alamar Blue viability assay IC50 H2030 [3]: inactive
CCc1cc(-c2n[nH]c(C)c2-c2ccc3c(c2)OCCO3)c(O)cc1O [CCT 018159]	–	–	–	–	–	–	–	–	–	–	–	–	Inhibition of granule formation in dose response ([1]; at 5 and 10 μM): partial inhibition
COc1cc2ncnc(Nc3cccc(Cl)c3)c2cc1OC [Tyrphostin AG 1478]	–	N.E.	–	65 ± 8	> 10	> 10	94	2.6 ± 1.3	> 10	0.033 ± 0.007	0.049 ± 0.001	12	IC50 (ABL kinase): 2 ± 0.6 µM
CCN(CC)CC1CCN(c2ncc3ncnc(Nc4ccc(F)c(Cl)c4)c3n2)CC1.Cl.Cl [BIBU 1361]	38 ± 7	N.E.	3	–	–	–	–	–	–	–	–	–	IC50 (recombinant EGFR kinase): 0.003 µM
COc1cc2ncnc(Nc3cccc(Br)c3)c2cc1OC [PD 153035]	–	–	–	91 ± 20	> 10	> 10	97	> 10	> 10	0.048 ± 0.012	0.072 ± 0.012	12	IC50 or EC50 (nM) Nuclei count (A549-EGFRB cells): N.E.
CC[C@@]1(O)C(=O)OCc2c1cc1n(c2=O)Cc2cc3ccccc3nc2-1 [Camptothecin, camptothecin]	–	N.E.^*	–	720 ± 100	0.035 ± 0.05	0.017 ± 0.005	81	> 10	> 10	0.29 ± 0.04	0.39 ± 0.05	40	IC50 (EGFR kinase): > 10 µM; IC50 (ABL kinase): > 10 µM
